Drawing on patent US11236055B2 (Venenum Biodesign, LLC, priority 2016, dated 2022), this text covers EC50 for 26 compounds.

Molecules are shown by their SMILES. Structures can show the parent of a compound that is named as a salt. Where only a bound is given, the exact number is not on record here.

One assay addresses T1, human TGR5 receptor (Homo sapiens, UniProt Q8TDU6).
T1 construct: host or cells: CHO-K1 (hTGR5-CHO cells)
T1 sequence (Q8TDU6 1-330): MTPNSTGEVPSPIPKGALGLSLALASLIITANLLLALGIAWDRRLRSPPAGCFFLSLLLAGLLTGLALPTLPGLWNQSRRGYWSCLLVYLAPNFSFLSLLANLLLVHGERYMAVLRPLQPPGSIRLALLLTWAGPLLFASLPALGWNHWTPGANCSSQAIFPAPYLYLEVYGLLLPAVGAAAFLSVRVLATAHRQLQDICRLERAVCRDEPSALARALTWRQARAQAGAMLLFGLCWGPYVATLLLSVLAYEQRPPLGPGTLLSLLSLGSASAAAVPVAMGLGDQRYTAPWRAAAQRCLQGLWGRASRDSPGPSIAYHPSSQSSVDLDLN
The assay can be described thus: Human TGR5 cAMP production assay. The assay is classed as cell-based. The note with it: human TGR5, luminescent cAMP assay; coded A-D; read-out: Human TGR5 Lum. cAMP Activity (EC50). The method, boiled down: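 Intracellular cAMP read by luminescent enzyme-complementation (XS+) after overnight development, following 1 h room-temperature compound treatment of hTGR5-CHO-K1 cells in IBMX plus anti-cAMP antibody. Compounds tested as half-log dilution series; EC50 derived.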

The next assay concerns the target T2, mouse TGR5 receptor (Mus musculus, UniProt Q80SS6).
T2 construct: expressed in transfected cells; host or cells: HEK293-EBNA (293 c18, ATCC CRL10852), Hygromycin B selection
T2 sequence (Q80SS6 1-329): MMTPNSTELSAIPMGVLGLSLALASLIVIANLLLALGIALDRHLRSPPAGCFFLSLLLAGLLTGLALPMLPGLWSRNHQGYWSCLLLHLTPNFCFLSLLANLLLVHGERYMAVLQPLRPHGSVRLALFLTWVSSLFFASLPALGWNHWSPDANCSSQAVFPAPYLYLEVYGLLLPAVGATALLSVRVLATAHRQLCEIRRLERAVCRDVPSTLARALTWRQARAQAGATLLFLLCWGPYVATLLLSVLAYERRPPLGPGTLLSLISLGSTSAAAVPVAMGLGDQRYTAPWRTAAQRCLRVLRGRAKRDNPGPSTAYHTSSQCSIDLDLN
The assay can be described thus: Mouse TGR5 cAMP production assay (HTRF, Cisbio cAMP HiRange). In kind it is cell-based. Particulars: HEK293-EBNA cells overexpressing mouse TGR5, HTRF cAMP HiRange; coded A-D. An outline of the steps: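 cAMP read by HTRF competition after 1 h room-temperature compound exposure of mouse TGR5-overexpressing HEK293-EBNA cells. Cells were suspended in serum-free DMEM containing 500 μM IBMX; compounds ran as 12-point half-log dilutions in duplicate; EC50 derived.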

As to `CC(C)(NS(=O)(=O)c1ccccc1C(F)(F)F)c1cccc(-c2cnc3nccn3c2)c1` [Compound 5AM, N-(2-(3-(imidazo [1,2-a]pyrimidin-6-yl)phenyl)propan-2-yl)-2-(trifluoromethyl)benzenesulfonamide], the EC50 on human TGR5 receptor and on mouse TGR5 receptor was 1000 to 30000 nM in each case.
In the case of `COc1cnccc1-c1cccc(C(C)(C)NS(=O)(=O)c2cc(Cl)ccc2[N+](=O)[O-])c1` [Compound 2BH], the EC50 at human TGR5 receptor and at mouse TGR5 receptor was less than 100 nM in each case.
With `CCc1cnccc1-c1cccc(C2CN(C(=O)[C@@H](N)CS(=O)(=O)O)CCN2S(=O)(=O)c2cccc(Cl)c2C)c1` (mixture of isomers) [Compound 48, (2R)-2-amino-3-(4-((3-chloro-2-methylphenyl)sulfonyl)-3-(3-(3-ethylpyridin-4-yl)phenyl)piperazin-1-yl)-3-oxopropane-1-sulfonic acid hydrochloride], the EC50 on human TGR5 receptor was 100 to 999 nM; at mouse TGR5 receptor it was less than 100 nM.
As to `Cc1cnccc1-c1cccc(C2(NS(=O)(=O)c3cccc(Cl)c3C)COC2)c1` [Compound 7AC, 3-chloro-2-methyl-N-(3-(3-(3-methylpyridin-4-yl)phenyl)oxetan-3-yl)benzenesulfonamide], the 50% effective concentration (EC50) at human TGR5 receptor and on mouse TGR5 receptor was less than 100 nM throughout.
Regarding `Cc1cnccc1-c1cccc(C(C)(C)N(CCCC(=O)N[C@H](C)C(=O)O)S(=O)(=O)c2cccc(Cl)c2C)c1` [Compound 21AE, (R)-2-(4-(3-chloro-2-methyl-N-(2-(3-(3-methylpyridin-4-yl)phenyl)propan-2-yl)phenylsulfonamido)butanamido)propanoic acid], the EC50 at human TGR5 receptor and at mouse TGR5 receptor was less than 100 nM each time.
For the compound `Cc1cnccc1-c1cccc(CCNS(=O)(=O)c2ccccc2C(F)(F)F)c1` [Compound 5BD, N-(3-(3-methylpyridin-4-yl)phenethyl)-2-(trifluoromethyl)benzenesulfonamide], the EC50 at human TGR5 receptor was 100 to 999 nM; on mouse TGR5 receptor it was 1000 to 30000 nM.
With `Cc1cnccc1-c1cccc([C@H](C)N(CCOCC(=O)NCCS(=O)(=O)O)S(=O)(=O)c2cccc(Cl)c2C)c1` [Compound 21AO, (S)-2-(2-(2-(3-Chloro-2-methyl-N-(1-(3-(3-methylpyridin-4-yl)phenyl)ethyl)phenylsulfonamido)ethoxy)acetamido)ethanesulfonic acid], the EC50 at human TGR5 receptor and on mouse TGR5 receptor was 100 to 999 nM throughout.
As to `Cc1nccc(-c2cccc([C@H](C)N(CCCC(=O)O)S(=O)(=O)c3cccc(Cl)c3C)c2)c1C` [Compound 14AG, (S)-4-(3-chloro-N-(1-(3-(2,3-dimethylpyridin-4-yl)phenyl)ethyl)-2-methylphenylsulfonamido)butanoic acid], the EC50 on human TGR5 receptor and on mouse TGR5 receptor was 100 to 999 nM throughout.
On to `COc1cnccc1-c1cccc(C(CO)NS(=O)(=O)c2cccc(C(F)(F)F)c2)c1` (racemic) [Compound 17, (+/−) N-(2-hydroxy-1-(3-(3-methoxypyridin-4-yl)phenyl)ethyl)-3-(trifluoromethyl)benzenesulfonamide], for which the EC50 on human TGR5 receptor was 100 to 999 nM; on mouse TGR5 receptor, 1000 to 30000 nM.
Turning to `Cc1cnccc1-c1cccc([C@H](C)N(CCCC(=O)NCCS(=O)(=O)O)S(=O)(=O)c2ccccc2C(F)(F)F)c1`, the EC50 on human TGR5 receptor is less than 100 nM; on mouse TGR5 receptor, 100 to 999 nM.
As to `Cc1cnccc1-c1cccc([C@H](C)N(CCCCC(=O)NC[C@@H](O)[C@H](O)[C@@H](O)[C@@H](O)CO)S(=O)(=O)c2cccc(Cl)c2C)c1` [Compound 20AI, 5-(3-chloro-2-methyl-N-((S)-1-(3-(3-methylpyridin-4-yl)phenyl)ethyl)phenylsulfonamido)-N-((2R,3S,4S,5S)-2,3,4,5,6-pentahydroxyhexyl)pentanamide], the EC50 is less than 100 nM at human TGR5 receptor and 100 to 999 nM on mouse TGR5 receptor.
The matching figures for `COc1cnccc1-c1cccc(C(C)(C)NS(=O)(=O)c2ccc(Cl)cc2[N+](=O)[O-])c1` [Compound 2BI]: less than 100 nM and 100 to 999 nM.
`Cc1cnccc1-c1cccc(C(CCC(=O)O)NS(=O)(=O)c2ccccc2C(F)(F)F)c1` (stereo not shown) [Compound 19, 4-(3-(3-methylpyridin-4-yl)phenyl)-4-(2-(trifluoromethyl)phenylsulfonamido)butanoic acid]: the concentration giving a half-maximal response (EC50) lay in the range of 1000 to 30000 nM at human TGR5 receptor and 100 to 999 nM on mouse TGR5 receptor.
On to `CCc1cnccc1-c1cccc([C@H](C)N(CCCC(=O)NCCN)S(=O)(=O)c2cccc(Cl)c2C)c1` [Compound 21AS, (S)-N-(2-aminoethyl)-4-(3-chloro-N-(1-(3-(3-ethylpyridin-4-yl)phenyl)ethyl)-2-methylphenylsulfonamido)butanamide], for which the EC50 on human TGR5 receptor is less than 100 nM; on mouse TGR5 receptor it was 100 to 999 nM.
Take `Cc1cnccc1-c1cccc([C@H](C)N(CCCC(=O)NS(=O)(=O)CCC(=O)O)S(=O)(=O)c2cccc(Cl)c2C)c1` [Compound 20BW, (S)-3-(N-(4-(3-chloro-2-methyl-N-(1-(3-(3-methylpyridin-4-yl)phenyl)ethyl)phenylsulfonamido)butanoyl)sulfamoyl)propanoic acid]: the values for the EC50 at human TGR5 receptor and on mouse TGR5 receptor were 100 to 999 nM and less than 100 nM, respectively.
`COc1cnccc1-c1cccc(CCNS(=O)(=O)c2ccccc2C(F)(F)F)c1` [Compound 1CF]: the EC50 at human TGR5 receptor is 100 to 999 nM; at mouse TGR5 receptor it was 1000 to 30000 nM.
The matching figures for `CCOC(=O)CCN/C(=N/C#N)NCCCN(C(C)(C)c1cccc(-c2ccncc2C)c1)S(=O)(=O)c1cccc(Cl)c1C` [Compound 25A, Ethyl (E)-3-(3-(3-((3-chloro-2-methyl-N-(2-(3-(3-methylpyridin-4-yl)phenyl)propan-2-yl)phenyl)sulfonamido)propyl)-2-cyanoguanidino)propanoate]: less than 100 nM and 100 to 999 nM.
The matching figures for `Cc1cnccc1-c1cccc(C2CCCCN2S(=O)(=O)c2ccccc2C(F)(F)F)c1` (stereo not shown) [Compound 54, 3-methyl-4-(3-(1-((2-(trifluoromethyl)phenyl)sulfonyl)piperidin-2-yl)phenyl)pyridine]: less than 100 nM and 100 to 999 nM.
In the same order, the values of `Cc1cnccc1-c1cccc(C(C)(C)N(CCCN)S(=O)(=O)c2cccc(Cl)c2C)c1` [Compound 23, N-(3-aminopropyl)-3-chloro-2-methyl-N-(2-(3-(3-methylpyridin-4-yl)phenyl)propan-2-yl)benzenesulfonamide] are less than 100 nM and 1000 to 30000 nM.
Consider `Cc1cnccc1-c1cccc(CCN(CCCC(=O)NCCS(=O)(=O)O)S(=O)(=O)c2cccc(Cl)c2C)c1` [Compound 20BT, 2-(4-(3-chloro-2-methyl-N-(3-(3-methylpyridin-4-yl)phenethyl)phenylsulfonamido)butanamido)ethanesulfonic acid], for which the 50% effective concentration (EC50) at human TGR5 receptor lay in the range of 100 to 999 nM; at mouse TGR5 receptor it was 1000 to 30000 nM.
Take `CCc1cnccc1-c1cccc([C@H](C)N(CCCC(=O)O)S(=O)(=O)c2cccc(Cl)c2C)c1` [Compound 16AB, (S)-4-(3-chloro-N-(1-(3-(3-ethylpyridin-4-yl)phenyl)ethyl)-2-methylphenyl-sulfonamido)butanoic acid]: the EC50 on human TGR5 receptor and on mouse TGR5 receptor was less than 100 nM each time.
Regarding `Cc1cnccc1-c1cccc(C2CN(CCCC(=O)O)CCN2S(=O)(=O)c2cccc(Cl)c2C)c1` (stereo not shown) [Compound 52, 4-(4-((3-chloro-2-methylphenyl)sulfonyl)-3-(3-(3-methylpyridin-4-yl)phenyl)piperazin-1-yl)butanoic acid], the EC50 at human TGR5 receptor and at mouse TGR5 receptor was 100 to 999 nM in each case.
As for `Cc1cnccc1-c1cccc(C2CN(C(=O)CCC(=O)O)CCN2S(=O)(=O)c2ccc(F)cc2C(F)(F)F)c1` (stereo not shown) [Compound 46AL], the EC50 on human TGR5 receptor and on mouse TGR5 receptor was 100 to 999 nM throughout.
In the case of `COc1cnccc1-c1cccc(C(C)(C)NS(=O)(=O)c2ccc(F)cc2C(F)(F)F)c1` [Compound 2BD], the EC50 at human TGR5 receptor was less than 100 nM; at mouse TGR5 receptor, 100 to 999 nM.
The matching figures for `CCc1cnccc1-c1cccc([C@H](C)N(CCCCNS(=O)(=O)CCC(=O)O)S(=O)(=O)c2cccc(Cl)c2C)c1` [Compound 26AE, (S)-3-(N-(4-(3-chloro-N-(1-(3-(3-ethylpyridin-4-yl)phenyl)ethyl)-2-methylphenylsulfonamido)butyl)sulfamoyl)propanoic acid]: less than 100 nM and less than 100 nM.
In the same order, the values of `Cc1cnccc1-c1cccc([C@H](CCCC(=O)O)NS(=O)(=O)c2ccccc2C(F)(F)F)c1` [Compound 19AA, (S)-5-(3-(3-methylpyridin-4-yl)phenyl)-5-(2-(trifluoromethyl)phenylsulfonamido) pentanoic acid] are 100 to 999 nM and 100 to 999 nM.
